Measurements published in patent US11691972B2, “Compounds for targeted degradation of BRD9” (C4 Therapeutics, Inc., priority 2020, dated 2023).
Read-outs that look alike come from different tables or passages of the source.

Tests used:
BRD9 [1] = target: T1, BRD9 (Homo sapiens, UniProt Q9H8M2); assay: Western blot of endogenous BRD9 degradation in A204, HS-SY-II, SW982 and Yamato SS cells; type: cell-based; parameters: endogenous in cells; host or cells: Yamato-SS (human synovial sarcoma); details: SW982, Yamato SS cells, 6 hours, FIG. 15
T1 sequence (Q9H8M2 1-597): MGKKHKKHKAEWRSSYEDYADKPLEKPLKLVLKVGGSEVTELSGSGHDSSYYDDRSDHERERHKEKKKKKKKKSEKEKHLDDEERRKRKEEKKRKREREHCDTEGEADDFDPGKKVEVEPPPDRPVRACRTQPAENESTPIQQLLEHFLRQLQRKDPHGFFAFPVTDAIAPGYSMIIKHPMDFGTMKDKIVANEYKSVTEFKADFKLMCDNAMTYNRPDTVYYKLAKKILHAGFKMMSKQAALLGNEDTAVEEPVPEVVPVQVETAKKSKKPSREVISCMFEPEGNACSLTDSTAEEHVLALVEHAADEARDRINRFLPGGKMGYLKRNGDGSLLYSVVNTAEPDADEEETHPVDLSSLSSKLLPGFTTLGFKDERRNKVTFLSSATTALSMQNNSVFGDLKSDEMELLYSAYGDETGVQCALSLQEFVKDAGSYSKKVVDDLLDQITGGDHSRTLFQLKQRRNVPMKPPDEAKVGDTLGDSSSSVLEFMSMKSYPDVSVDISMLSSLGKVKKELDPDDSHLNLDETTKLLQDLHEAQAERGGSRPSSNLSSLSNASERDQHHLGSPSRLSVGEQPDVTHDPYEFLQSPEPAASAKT
Procedure: The top left represents the malignant human rhabdoid tumor (A204), top right represents the human synovial sarcoma (HS-SY-II), the bottom left represents human soft tissue sarcoma (SW982, BAF wildtype) and the bottom right represents synovial sarcoma (Yamato SS), all via western blot.
Cells were plated at 500,000 cells/well in a 6-well plate and allowed to adhere for 16 hours. Each cell line was treated with Compound 176 serially diluted in DMSO for 6 hours. Cell pellets were collected, lysed with RIPA lysis buffer in the presence of protease inhibitors, and run on a 4-12% acrylamide gel for 45 minutes at 150V. Proteins were transferred to a nitrocellulose membrane and incubated with antibodies against BRD9 (1:1000; Cell Signaling Technology, #71232) or Vinculin (1:10,000; EMD, 05-386) overnight with agitation at 4° C. Blots were thrice washed with tris-buffered saline+0.05% tween-20 and incubated with host-directed fluorescently-conjugated antibodies for 1 hour at room temperature. Blots were thrice washed and imaged on a LiCor Odyssey CLx.

[2] = tested on: BAF wildtype synovial sarcoma cells (SW982); assay: Confluence (growth) over time in SW982 cells; type: cell-based, human; details: various concentrations, FIG. 17
BRD9 [3] = target: T1, BRD9; assay: In-vivo BRD9 degradation in the Aska-SS xenograft model; details: various concentrations and times, FIG. 13
CYP 2C19 = CYP 2C19 (Homo sapiens, UniProt P33261); assay: CYP TDI (time-dependent inhibition); type: in vitro ADME
CYP 2C19, sequence (P33261 whole entry): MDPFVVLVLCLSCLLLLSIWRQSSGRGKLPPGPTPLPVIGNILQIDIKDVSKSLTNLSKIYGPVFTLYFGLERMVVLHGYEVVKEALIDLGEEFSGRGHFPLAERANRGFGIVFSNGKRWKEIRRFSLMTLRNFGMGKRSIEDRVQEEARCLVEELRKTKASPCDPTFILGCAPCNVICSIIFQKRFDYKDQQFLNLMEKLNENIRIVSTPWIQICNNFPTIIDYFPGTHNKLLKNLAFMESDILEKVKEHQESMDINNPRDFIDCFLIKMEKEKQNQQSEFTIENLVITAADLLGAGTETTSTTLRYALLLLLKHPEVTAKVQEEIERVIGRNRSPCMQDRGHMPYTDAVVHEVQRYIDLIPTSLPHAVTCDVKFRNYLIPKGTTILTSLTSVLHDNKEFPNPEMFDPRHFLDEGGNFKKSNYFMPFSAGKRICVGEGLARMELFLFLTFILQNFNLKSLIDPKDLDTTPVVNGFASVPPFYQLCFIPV

CYP 2E1 = CYP 2E1 (Homo sapiens, UniProt P05181); assay: CYP inhibition 2E1; type: in vitro ADME
CYP 2E1, sequence (P05181 whole entry): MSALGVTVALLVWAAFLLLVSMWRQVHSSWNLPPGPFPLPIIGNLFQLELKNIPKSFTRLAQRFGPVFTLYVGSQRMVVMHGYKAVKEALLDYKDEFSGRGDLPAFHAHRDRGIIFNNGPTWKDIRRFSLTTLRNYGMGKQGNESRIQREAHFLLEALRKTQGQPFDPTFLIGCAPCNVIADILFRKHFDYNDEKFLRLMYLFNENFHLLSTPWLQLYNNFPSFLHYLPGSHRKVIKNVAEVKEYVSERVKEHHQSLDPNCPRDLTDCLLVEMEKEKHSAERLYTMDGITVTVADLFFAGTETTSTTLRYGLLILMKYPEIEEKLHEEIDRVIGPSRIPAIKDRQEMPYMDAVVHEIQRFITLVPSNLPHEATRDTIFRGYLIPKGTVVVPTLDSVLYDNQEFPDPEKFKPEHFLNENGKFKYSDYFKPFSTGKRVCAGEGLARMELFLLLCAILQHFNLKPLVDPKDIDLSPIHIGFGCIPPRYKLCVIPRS

SALL4 = SALL4 (Homo sapiens, UniProt Q9UJQ4); assay: SALL4 degradation; type: cell-based; details: one value given for IKZF1/SALL4/GSPT1
SALL4, sequence (Q9UJQ4 whole entry, species assumed): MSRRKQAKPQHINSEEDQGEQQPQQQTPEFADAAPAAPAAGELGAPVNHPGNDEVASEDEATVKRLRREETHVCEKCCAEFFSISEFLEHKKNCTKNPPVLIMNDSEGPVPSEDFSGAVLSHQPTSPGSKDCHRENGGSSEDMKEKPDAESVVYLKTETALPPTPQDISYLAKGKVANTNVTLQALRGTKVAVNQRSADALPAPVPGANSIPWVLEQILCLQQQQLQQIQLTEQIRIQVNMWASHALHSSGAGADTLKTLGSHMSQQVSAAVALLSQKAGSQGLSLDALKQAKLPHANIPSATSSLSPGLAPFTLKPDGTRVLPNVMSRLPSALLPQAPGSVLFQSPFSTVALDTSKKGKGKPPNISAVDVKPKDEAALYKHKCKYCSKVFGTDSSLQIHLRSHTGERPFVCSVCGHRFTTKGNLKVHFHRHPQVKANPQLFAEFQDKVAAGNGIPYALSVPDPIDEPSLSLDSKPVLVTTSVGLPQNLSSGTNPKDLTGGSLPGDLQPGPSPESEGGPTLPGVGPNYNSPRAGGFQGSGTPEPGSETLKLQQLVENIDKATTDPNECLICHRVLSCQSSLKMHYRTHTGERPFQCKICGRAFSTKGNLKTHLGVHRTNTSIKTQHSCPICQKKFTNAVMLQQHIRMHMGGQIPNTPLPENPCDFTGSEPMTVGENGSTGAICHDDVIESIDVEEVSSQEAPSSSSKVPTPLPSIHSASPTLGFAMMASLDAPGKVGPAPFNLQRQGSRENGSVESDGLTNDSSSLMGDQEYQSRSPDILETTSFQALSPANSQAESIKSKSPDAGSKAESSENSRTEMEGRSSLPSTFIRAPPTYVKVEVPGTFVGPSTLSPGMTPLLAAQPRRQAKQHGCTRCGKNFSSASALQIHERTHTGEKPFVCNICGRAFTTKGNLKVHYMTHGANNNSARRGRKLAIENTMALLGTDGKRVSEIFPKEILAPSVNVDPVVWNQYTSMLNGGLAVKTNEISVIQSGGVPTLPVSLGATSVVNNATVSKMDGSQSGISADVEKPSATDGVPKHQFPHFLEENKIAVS

CYP 3A4 = CYP 3A4 (Homo sapiens, UniProt P08684); assay: CYP inhibition 3A4; type: in vitro ADME
CYP 3A4, sequence (P08684 whole entry): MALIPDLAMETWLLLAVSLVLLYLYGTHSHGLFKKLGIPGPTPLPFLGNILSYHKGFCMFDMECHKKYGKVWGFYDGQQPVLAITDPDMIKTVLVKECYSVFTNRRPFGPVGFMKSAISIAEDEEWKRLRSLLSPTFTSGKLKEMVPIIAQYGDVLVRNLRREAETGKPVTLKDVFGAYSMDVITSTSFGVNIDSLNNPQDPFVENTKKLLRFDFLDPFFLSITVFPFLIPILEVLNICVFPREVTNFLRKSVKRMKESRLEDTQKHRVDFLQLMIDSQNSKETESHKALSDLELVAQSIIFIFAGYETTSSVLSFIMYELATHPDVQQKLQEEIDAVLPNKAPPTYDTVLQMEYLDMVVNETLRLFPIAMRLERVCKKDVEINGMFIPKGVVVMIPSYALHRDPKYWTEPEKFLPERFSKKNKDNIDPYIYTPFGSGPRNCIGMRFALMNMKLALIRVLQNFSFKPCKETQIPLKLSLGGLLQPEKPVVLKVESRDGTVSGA

Compound | degradation of alpha BRD9, western blot (BRD9 [1]) | confluence as a percentage of control over time [2] | in-vivo BRD9 degradation (normalized concentration) (BRD9 [3]) | IC50 (CYP 2C19; 2C19, first of two values in brackets, read-out: CYP TDI 2C19, first value) [µM] | IC50 (CYP 2C19; 2C19, second of two values in brackets, read-out: CYP TDI 2C19, second value) [µM] | IC50 (CYP 2E1) [µM] | DC50 (SALL4) [µM] | IC50 (CYP 3A4) [µM]
COc1cc(-c2cn(C)c(=O)c(C)c2C)cc(OC)c1CN1CCC(N2CCN(c3ccc(NC4CCC(=O)NC4=O)cc3F)CC2)C(F)(F)C1 (single isomer, unassigned) [Compound 176, 3-[4-[4-[1-[[2,6-dimethoxy-4-(1,4,5-trimethyl-6-oxo-3-pyridyl)phenyl]methyl]-3,3-difluoro-4-piperidyl]piperazin-1-yl]-3-fluoro-anilino]piperidine-2,6-dione] | dose dependent degradation of alpha BRD9 | lack of growth inhibition |  |  |  |  |  | 
COc1cc(-c2cn(C)c(=O)c(C)c2C)cc(OC)c1CN1CCC(N2CCN(c3ccc(NC4CCC(=O)NC4=O)cc3F)CC2)C(F)(F)C1 (centres unmarked) [Compound 172, 3-[4-[4-[1-[[2,6-dimethoxy-4-(1,4,5-trimethyl-6-oxo-3-pyridyl)phenyl]methyl]-3,3-difluoro-4-piperidyl]piperazin-1-yl]-3-fluoro-anilino]piperidine-2,6-dione] |  |  | dose dependent in-vivo BRD9 degradation | > 50 | 24 | 30 | > 9.99 | 18.2
